Test results reported in ChEMBL document CHEMBL5325492, “PROTACs Targeting MLKL Protect Cells from Necroptosis” (J Med Chem, 2023).
Active and inactive are the calls of the source. No cut-off for these calls is given here.

Experiments:
[1] = target: T1, Protein cereblon/Mixed lineage kinase domain-like protein (Homo sapiens, UniProt Q8NB16+Q96SW2); test: PROTAC activity at CRBN/MLKL in human HT29 cells assessed as remaining protein level in cell lysates at 10 uM incubated upto 8 hrs measured by capillary immunoassay relative to vehicle treated control; format: subcellular; conditions: HT-29
Target sequence in this assay (Q96SW2 whole entry, looked up, one chain of several, the tested form may be a part): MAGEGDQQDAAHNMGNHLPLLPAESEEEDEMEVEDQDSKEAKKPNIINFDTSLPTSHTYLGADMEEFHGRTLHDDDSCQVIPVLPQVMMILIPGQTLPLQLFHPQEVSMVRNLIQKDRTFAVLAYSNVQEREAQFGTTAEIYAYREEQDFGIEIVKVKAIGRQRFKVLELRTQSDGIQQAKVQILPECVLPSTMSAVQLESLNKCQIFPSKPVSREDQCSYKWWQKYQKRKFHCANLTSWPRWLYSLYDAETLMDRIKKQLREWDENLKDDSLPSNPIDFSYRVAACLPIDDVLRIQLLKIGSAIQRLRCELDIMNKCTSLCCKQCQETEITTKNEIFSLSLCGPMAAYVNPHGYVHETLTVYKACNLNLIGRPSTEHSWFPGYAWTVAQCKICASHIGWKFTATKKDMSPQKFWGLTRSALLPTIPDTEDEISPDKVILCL

[2] = target: T1, Protein cereblon/Mixed lineage kinase domain-like protein; test: PROTAC activity at CRBN/MLKL in human HK-2 cells assessed as remaining protein level in cell lysates at 0.1 to 10 uM incubated for 24 hrs measured by capillary immunoassay; format: subcellular; conditions: dose 0.1-10 µM
Target sequence in this assay (Q96SW2 whole entry, looked up, one chain of several, the tested form may be a part): as above

[3] = target: T1, Protein cereblon/Mixed lineage kinase domain-like protein; test: PROTAC activity at CRBN/MLKL in human HEK-a cells assessed as remaining protein level in cell lysates at 0.1 to 10 uM incubated for 24 hrs measured by capillary immunoassay; format: subcellular; conditions: dose 0.1-10 µM
Target sequence in this assay (Q96SW2 whole entry, looked up, one chain of several, the tested form may be a part): as above

[4] = target: T1, Protein cereblon/Mixed lineage kinase domain-like protein; test: PROTAC activity at CRBN/MLKL in TSZ-induced human HT29 cells assessed as suppression of phosphorylated protein in cell lysates at 10 uM incubated for 8 hrs measured by capillary immunoassay; format: subcellular; conditions: HT-29
Target sequence in this assay (Q96SW2 whole entry, looked up, one chain of several, the tested form may be a part): as above

[5] = target: Receptor-interacting serine/threonine-protein kinase 3 (Homo sapiens) (UniProt Q9Y572); test: Binding affinity to wild type human RIPK3 (M1/Q307) expressed in bacterial expression system measured upto 10 uM by Eurofins-DiscoverX KINOMEscanTM KdELECT assay
Sequence of Receptor-interacting serine/threonine-protein kinase 3 (Homo sapiens) (Q9Y572 whole entry, looked up, the tested form may be a part): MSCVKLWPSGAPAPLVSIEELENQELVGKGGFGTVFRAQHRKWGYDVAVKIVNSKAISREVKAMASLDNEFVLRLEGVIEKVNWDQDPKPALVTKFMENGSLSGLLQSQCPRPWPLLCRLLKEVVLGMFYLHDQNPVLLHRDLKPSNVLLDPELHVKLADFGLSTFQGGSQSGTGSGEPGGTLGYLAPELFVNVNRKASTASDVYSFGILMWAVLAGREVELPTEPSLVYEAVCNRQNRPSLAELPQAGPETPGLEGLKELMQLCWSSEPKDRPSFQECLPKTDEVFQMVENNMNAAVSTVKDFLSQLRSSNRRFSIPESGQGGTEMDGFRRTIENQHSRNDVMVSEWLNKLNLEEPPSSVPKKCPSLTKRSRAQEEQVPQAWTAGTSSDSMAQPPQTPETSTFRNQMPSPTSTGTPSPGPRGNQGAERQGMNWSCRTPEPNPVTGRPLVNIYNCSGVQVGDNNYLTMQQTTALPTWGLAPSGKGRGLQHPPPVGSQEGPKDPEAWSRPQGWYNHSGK

[6] = target: T1, Protein cereblon/Mixed lineage kinase domain-like protein; test: PROTAC activity at CRBN/MLKL in TSZ-induced human HT29 cells assessed as suppression of phosphorylated protein in cell lysates at 10 uM incubated for 4 hrs measured by capillary immunoassay; format: subcellular; conditions: HT-29
Target sequence in this assay (Q96SW2 whole entry, looked up, one chain of several, the tested form may be a part): as the sequence (Q96SW2 whole entry, looked up, one chain of several, the tested form may be a part) above

[7] = target: Protein cereblon/Receptor-interacting serine/threonine-protein kinase 2 (Homo sapiens) (UniProt O43353+Q96SW2); test: PROTAC activity at CRBN/RIPK2 in human HT29 cells assessed as remaining protein level in cell lysates at 10 uM incubated for 24 hrs measured by capillary immunoassay relative to vehicle treated control; format: subcellular; conditions: HT-29
Sequence of Protein cereblon/Receptor-interacting serine/threonine-protein kinase 2 (Homo sapiens) (O43353 whole entry, looked up, the tested form may be a part): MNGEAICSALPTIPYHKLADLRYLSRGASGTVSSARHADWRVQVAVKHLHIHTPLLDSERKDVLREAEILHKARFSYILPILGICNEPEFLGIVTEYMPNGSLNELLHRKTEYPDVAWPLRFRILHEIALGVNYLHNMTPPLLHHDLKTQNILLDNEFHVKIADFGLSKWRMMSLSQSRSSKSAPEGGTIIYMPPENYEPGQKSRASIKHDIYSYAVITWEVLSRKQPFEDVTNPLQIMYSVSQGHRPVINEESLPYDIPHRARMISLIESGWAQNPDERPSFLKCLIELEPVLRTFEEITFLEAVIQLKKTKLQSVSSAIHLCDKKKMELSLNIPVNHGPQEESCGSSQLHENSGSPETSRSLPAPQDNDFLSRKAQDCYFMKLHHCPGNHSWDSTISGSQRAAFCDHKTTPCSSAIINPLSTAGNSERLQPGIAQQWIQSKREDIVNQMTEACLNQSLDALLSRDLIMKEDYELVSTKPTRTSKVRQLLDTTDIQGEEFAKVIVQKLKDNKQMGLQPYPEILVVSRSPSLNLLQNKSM
Sequence of Protein cereblon/Receptor-interacting serine/threonine-protein kinase 2 (Homo sapiens) (Q96SW2 whole entry, looked up, the tested form may be a part): as the sequence (Q96SW2 whole entry, looked up, one chain of several, the tested form may be a part) above

[8] = target: T1, Protein cereblon/Mixed lineage kinase domain-like protein; test: PROTAC activity at CRBN/MLKL in human HT29 cells assessed as remaining protein level in cell lysates incubated for 72 hrs measured by capillary immunoassay; format: subcellular; conditions: HT-29
Target sequence in this assay (Q96SW2 whole entry, looked up, one chain of several, the tested form may be a part): as above

[9] = target: Protein cereblon/Mixed lineage kinase domain-like protein (Mus musculus) (UniProt Q8C7D2+Q9D2Y4); test: PROTAC activity at CRBN/MLKL in mouse NIH-3T3 cells assessed as remaining protein level in cell lysates at 0.1 to 10 uM incubated for 24 hrs measured by capillary immunoassay; format: subcellular; conditions: dose 0.1-10 µM
Sequence of Protein cereblon/Mixed lineage kinase domain-like protein (Mus musculus) (Q8C7D2 whole entry, looked up, the tested form may be a part): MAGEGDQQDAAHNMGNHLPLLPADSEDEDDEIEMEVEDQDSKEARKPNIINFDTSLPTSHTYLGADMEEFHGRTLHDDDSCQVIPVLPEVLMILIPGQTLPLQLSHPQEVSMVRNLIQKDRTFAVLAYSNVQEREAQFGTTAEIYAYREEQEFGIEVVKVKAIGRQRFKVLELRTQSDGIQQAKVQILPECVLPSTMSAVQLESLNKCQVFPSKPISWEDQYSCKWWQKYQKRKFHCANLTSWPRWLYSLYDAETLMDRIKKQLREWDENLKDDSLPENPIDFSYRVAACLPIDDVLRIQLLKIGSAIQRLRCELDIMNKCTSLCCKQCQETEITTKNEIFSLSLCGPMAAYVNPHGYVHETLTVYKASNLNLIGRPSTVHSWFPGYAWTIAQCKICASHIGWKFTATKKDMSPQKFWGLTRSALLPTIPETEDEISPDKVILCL
Sequence of Protein cereblon/Mixed lineage kinase domain-like protein (Mus musculus) (Q9D2Y4 whole entry, looked up, the tested form may be a part): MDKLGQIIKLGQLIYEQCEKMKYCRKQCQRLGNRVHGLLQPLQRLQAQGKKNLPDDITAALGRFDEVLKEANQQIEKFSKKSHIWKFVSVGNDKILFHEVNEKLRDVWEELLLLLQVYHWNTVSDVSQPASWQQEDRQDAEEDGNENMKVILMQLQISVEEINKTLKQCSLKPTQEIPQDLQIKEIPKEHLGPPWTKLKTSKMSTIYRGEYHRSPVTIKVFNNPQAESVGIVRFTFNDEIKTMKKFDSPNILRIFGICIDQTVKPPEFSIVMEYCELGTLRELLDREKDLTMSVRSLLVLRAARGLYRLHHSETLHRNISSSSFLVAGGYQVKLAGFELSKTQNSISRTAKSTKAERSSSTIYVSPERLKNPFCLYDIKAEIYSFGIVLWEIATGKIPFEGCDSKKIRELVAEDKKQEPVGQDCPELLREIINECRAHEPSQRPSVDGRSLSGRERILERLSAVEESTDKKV

HT-29 [10] = test: Cytotoxicity against human HT-29 cells assessed as cell viability at 10 uM incubated for 24 hrs in presence of 3-(4-((difluoromethyl)sulfonamido)phenyl)-5-((3-methoxyphenyl)amino)-1H-pyrazole-4-carboxamide by CellTiter-Glo assay; format: toxicity, cell-based; conditions: ht-29, 24 h
HT-29 [11] = test: Protection against TSZ-induced necroptosis in human HT-29 cells assessed as cell viability incubated for 24 hrs by CellTiter Glo assay; conditions: HT-29, 24 h
[12] = target: T1, Protein cereblon/Mixed lineage kinase domain-like protein; test: PROTAC activity at CRBN/MLKL in human HT29 cells assessed as remaining protein level in cell lysates at 10 uM incubated upto 5 hrs measured by capillary immunoassay relative to vehicle treated control; format: subcellular; conditions: HT-29
[13] = target: T2, Receptor-interacting serine/threonine-protein kinase 1 (Homo sapiens) (UniProt Q13546); test: Binding affinity to wild type human RIPK1 (M1/K305) expressed in bacterial expression system measured upto 10 uM by Eurofins-DiscoverX KINOMEscanTM KdELECT assay
T2 sequence (whole entry): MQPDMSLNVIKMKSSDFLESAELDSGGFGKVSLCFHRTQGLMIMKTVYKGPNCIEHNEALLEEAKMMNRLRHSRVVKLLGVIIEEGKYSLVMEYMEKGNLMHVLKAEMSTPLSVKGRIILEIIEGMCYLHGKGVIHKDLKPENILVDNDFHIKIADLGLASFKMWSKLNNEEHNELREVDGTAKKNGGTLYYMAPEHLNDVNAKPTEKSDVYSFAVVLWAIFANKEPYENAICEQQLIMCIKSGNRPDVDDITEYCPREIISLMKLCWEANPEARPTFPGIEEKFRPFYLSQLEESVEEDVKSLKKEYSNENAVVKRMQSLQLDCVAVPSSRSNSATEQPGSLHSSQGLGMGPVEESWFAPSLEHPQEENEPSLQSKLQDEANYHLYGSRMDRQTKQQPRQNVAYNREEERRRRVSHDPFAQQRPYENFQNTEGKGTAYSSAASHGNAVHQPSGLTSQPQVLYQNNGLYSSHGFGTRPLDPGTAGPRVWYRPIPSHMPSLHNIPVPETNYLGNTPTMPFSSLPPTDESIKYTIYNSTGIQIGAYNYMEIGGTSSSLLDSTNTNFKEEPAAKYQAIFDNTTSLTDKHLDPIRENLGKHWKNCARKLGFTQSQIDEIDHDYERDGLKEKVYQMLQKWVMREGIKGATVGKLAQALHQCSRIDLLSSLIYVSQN

[14] = target: T1, Protein cereblon/Mixed lineage kinase domain-like protein; test: PROTAC activity at CRBN/MLKL in human MKN74 cells assessed as remaining protein level in cell lysates at 0.1 to 10 uM incubated for 24 hrs measured by capillary immunoassay; format: subcellular; conditions: dose 0.1-10 µM
[15] = target: T1, Protein cereblon/Mixed lineage kinase domain-like protein; test: PROTAC activity at CRBN/MLKL in human HT-29 cells assessed as degraded protein level in cell lysates incubated for 24 hrs measured by capillary immunoassay relative to vehicle treated control; format: subcellular
[16] = target: T1, Protein cereblon/Mixed lineage kinase domain-like protein; test: PROTAC activity at CRBN/MLKL in TSZ-induced human HT29 cells assessed as remaining protein level in cell lysates preincubated with MG-132 for 30 mins followed by treated at 10 uM for 8 hrs measured by capillary immunoassay; format: subcellular; conditions: HT-29
HT-29 [17] = test: Cytotoxicity against human HT-29 cells assessed as cell viability at 10 uM incubated for 24 hrs in presence of lenalidomide by CellTiter-Glo assay; format: toxicity, cell-based; conditions: ht-29, 24 h
[18] = target: Protein cereblon/Receptor-interacting serine/threonine-protein kinase 1 (Homo sapiens) (UniProt Q13546+Q96SW2); test: PROTAC activity at CRBN/RIPK1 in human HT29 cells assessed as remaining protein level in cell lysates at 10 uM incubated for 24 hrs measured by capillary immunoassay relative to vehicle treated control; format: subcellular; conditions: HT-29
Sequence of Protein cereblon/Receptor-interacting serine/threonine-protein kinase 1 (Homo sapiens) (Q96SW2 whole entry, looked up, one chain of several, the tested form may be a part): as the sequence (Q96SW2 whole entry, looked up, one chain of several, the tested form may be a part) above

[19] = target: T3, Mixed lineage kinase domain-like protein (Homo sapiens) (UniProt Q8NB16); test: Induction of MLKL degradation in human HT-29 cells assessed as remaining protein level in cell lysates incubated for 24 hrs measured by capillary immunoassay; format: subcellular
T3 sequence (whole entry): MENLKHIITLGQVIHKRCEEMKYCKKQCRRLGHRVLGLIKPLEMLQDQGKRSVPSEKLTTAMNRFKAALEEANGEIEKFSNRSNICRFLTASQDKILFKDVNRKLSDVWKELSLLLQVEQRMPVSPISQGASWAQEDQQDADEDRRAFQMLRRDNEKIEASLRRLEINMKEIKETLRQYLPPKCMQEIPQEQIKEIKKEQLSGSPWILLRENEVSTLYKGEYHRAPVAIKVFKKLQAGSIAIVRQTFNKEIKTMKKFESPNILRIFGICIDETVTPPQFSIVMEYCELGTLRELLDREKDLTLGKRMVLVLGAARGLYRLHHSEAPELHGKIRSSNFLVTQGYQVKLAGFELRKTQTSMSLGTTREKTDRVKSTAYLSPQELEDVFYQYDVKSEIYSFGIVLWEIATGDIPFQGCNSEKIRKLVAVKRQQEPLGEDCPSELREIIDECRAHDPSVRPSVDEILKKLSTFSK

[20] = target: T1, Protein cereblon/Mixed lineage kinase domain-like protein; test: PROTAC activity at CRBN/MLKL in human HT-29 cells assessed as degraded protein level in cell lysates at 10 uM incubated for 24 hrs measured by capillary immunoassay relative to vehicle treated control; format: subcellular

Activity [1]: Active
Activity [2]: Active
Activity [3]: Active
Activity [4]: Active
Activity [5]: inactive
Activity [6]: Active
Activity [7]: inactive
Activity [8]: Active
Activity [9]: Active
Activity [12]: < 10%
Activity [13]: inactive
Activity [14]: Active
EC50 [15]: 2.4 µM
Activity ([15]; dose 0.1-10 µM): Dose-Dependent Effect
Activity [16]: inactive
Activity [18]: inactive
Activity [19]: inactive
Activity [20]: > 90%
Compound: COc1ccc(C(=O)N2CCC3(CCN(C(=O)CCCCCCCOc4cccc(Nc5[nH]nc(-c6ccc(NS(=O)(=O)C(F)F)cc6)c5C(N)=O)c4)CC3)CC2)cc1N1CCC(=O)NC1=O
Activity (HT-29 [10]): Non-Toxic
EC50 (HT-29 [11]): 1.2 µM
Activity (HT-29 [17]): Non-Toxic
